Measurements reported in patent US20040018501A1, “Methods and systems for analyzing complex biological systems” (priority 2001, published 2004).

Test system: Saccharomyces cerevisiae wild type strain BY4743
Assay: AF1 yeast metabolite analysis by GC-MS and LC-MS
Type: cell-based
Conditions: for Fold Change, zeatin: detected metabolite zeatin

## CC[C@@H]([C@H](C)O)n1ncn(-c2ccc(N3CCN(c4ccc(OC[C@@H]5CO[C@@](Cn6cncn6)(c6ccc(F)cc6F)C5)cc4)CC3)cc2)c1=O [Posaconazole]
Detected metabolite xanthosine(diH2O), platform pLC
  Fold Change, xanthosine(diH2O): 0
Detected metabolite xanthosineDiH2O, platform nLC
  Fold Change, xanthosineDiH2O: 0
Platform nLC
  Fold Change, zeatin: 0
Platform pLC
  Fold Change, zeatin: 0
nLC
  Fold Change of 2-ketobutyric acid: −0.9992
  Fold Change of 2-ketoglutaric: 11.33
  Fold Change of 3-indolylacetonitri: −0.9998
  Fold Change of 4-methylcatechol: 0
  Fold Change of 4aminobutyrate/dimg: −0.008939
  Fold Change of 5hydroxyLtryptophan: 0
  Fold Change of 6-benzylaminopurine: 0
  Fold Change of DLaminoadipic acid: −0.9935
  Fold Change of abscisic acid: 0
  Fold Change of aconitic acid: 1.874
  Fold Change of adenine: 0
  Fold Change of adenosine: 128.3
  Fold Change of alanine: 0.1091
  Fold Change of allantoic acid: 0.3321
  Fold Change of allantoin: 5.97
  Fold Change of anthranilic acid: 0
  Fold Change of arginine: 0.1707
  Fold Change of argininosuccinate: 318.3
  Fold Change of asparagine: 0.006865
  Fold Change of aspartic: 0.305
  Fold Change of benzoic acid: 0
  Fold Change of biotin: −0.9992
  Fold Change of caffeic acid: −0.49
  Fold Change of catechol: 0
  Fold Change of cinnamic acid: 0
  Fold Change of citricanoic/itaconi: 0
  Fold Change of citrulline: 1160
  Fold Change of coumaric acid: 0
  Fold Change of cytidine: −0.9986
  Fold Change of cytosine: 0
  Fold Change of decanoic acid: 0.1263
  Fold Change of diaminopimelic acid: 0
  Fold Change of dihydrofolic acid: 0
  Fold Change of estrone: 0
  Fold Change of farnesol: 0
  Fold Change of folic acid: 0
  Fold Change of fumaric/3m2oxobutan: −0.9997
  Fold Change of gallic acid: 0.4414
  Fold Change of gibberellic: 0
  Fold Change of glucosamine6PO4: −0.9951
  Fold Change of glutamic/acetylseri: 0.3222
  Fold Change of glutamine/lysine: 0.09814
  Fold Change of guanine: 0
  Fold Change of guanosine: −0.993
  Fold Change of histidine: 0
  Fold Change of homogentisic/uric: 0
  Fold Change of hydrocortisone: 0
  Fold Change of hypoxanthine: 0.1751
  Fold Change of indole3pyruvic acid: 0
  Fold Change of inostol/glucos/sorb: −0.493
  Fold Change of isocitric/citric/qu: 1.711
  Fold Change of jasmonic acid: 0
  Fold Change of kinetin: 0
  Fold Change of lactic acid: 0.5987
  Fold Change of lauric acid: 0.9833
  Fold Change of leucine/isoleucine/: 0.03158
  Fold Change of luteolin: 0
  Fold Change of malic acid: 0.3101
  Fold Change of malonic acid: 0
  Fold Change of menthol*: 0.08121
  Fold Change of methionine: 0
pLC
  Fold Change of 4-aminobenzoic acid: 0
  Fold Change of 4-methylcatechol: 0
  Fold Change of 4ambutyrate/dimglyc: 31.37
  Fold Change of 5hydroxyLtryptophan: 0
  Fold Change of 6benzylaminopurine: 0
  Fold Change of DL-aminoadipic acid: 1.685
  Fold Change of abscisic acid: 0
  Fold Change of adenine: −0.0145
  Fold Change of adenosine: 0
  Fold Change of alanine/sarcosine: 0.1013
  Fold Change of allantoic acid: 0
  Fold Change of anthranilic acid: 0
  Fold Change of arginine: 0.03383
  Fold Change of argininosuccinate: 0
  Fold Change of asparagine: 0.4302
  Fold Change of aspartic acid: 0.3626
  Fold Change of caffeine: 0
  Fold Change of citric acid TME: 0
  Fold Change of citrulline: 0.1011
  Fold Change of cytidine: 0
  Fold Change of cytosine: 1135
  Fold Change of diaminopimelic acid: 0
  Fold Change of dihydrofolic acid: 0
  Fold Change of dipicolinic acid: 0
  Fold Change of glucosamine: 0
  Fold Change of glucosamine6PO4: 0
  Fold Change of glutamate: 0.3769
  Fold Change of glutamine/lysine: 0.303
  Fold Change of glutathione: 0.0101
  Fold Change of guanosine: 0.04655
  Fold Change of histidine: 0
  Fold Change of hydrocortisone: 0
  Fold Change of hypoxanthine: 0.135
  Fold Change of itaconic acid dimes: 0
  Fold Change of kinetin: 0
  Fold Change of leucine/isoleucine/: 0.04937
  Fold Change of mannitol: 0.3919
  Fold Change of methionine: −0.3997
